Data as given in US8852632B2, “Pharmaceutical formulation containing a release rate controlling composition” (Merck Sharp & Dohme Corp., priority 2004, dated 2014).

Experiment: Hygroscopicity (vapor sorption analysis)
Assay type: physicochemical
Description: Hygroscopicity data was obtained on a VTI Symmetrical Vapor Sorption Analyzer Model SGA-1. Data was collected at room temperature from 5-95% relative humidity and back, 5% relative humidity change per step. Equilibrium conditions were 0.01 weight percent change in 5 minutes with a maximum equilibration time of 180 minutes. […] When equilibrated back down to 5% RH, the material returned back to approximately its dry weight.

Cc1nnc(C(=O)NC(C)(C)c2nc(C(=O)NCc3ccc(F)cc3)c(O)c(=O)n2C)o1
XRPD analysis after the hygroscopicity experiment (phase stability) (after cycling 5-95% relative humidity and back): had not changed phases
weight increase (hygroscopicity) (equilibrated at 95% RH at 25° C.): 1.8%
